assay type: physicochemical; settings: Tris-hydrochloric acid buffer (pH 7.5) 50 mmol/L, magnesium chloride 5 mmol/L, evaluation compound 1 µmol/L, 37°C, 60 minutes, average of duplicate
Method in brief: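 Conversion of compounds to brexpiprazole measured in buffer at 37°C, in duplicate: compound added after 3 min pre-incubation of reaction solution, and reaction stopped at 0 or 60 min with acetonitrile/isopropanol (4:1) containing internal standards. Quantified against calibration samples at 0.01, 0.1 and 1 µmol/L.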

Row | Concentration of brexpiprazole formed [µM] | Concentration of evaluation compound decreased [µM] | Compound
1 | 0.00 | 0.16 | O=C(CCCCCO)OCOP(=O)([O-])OC[N+]1(CCCCOc2ccc3ccc(=O)[nH]c3c2)CCN(c2cccc3sccc23)CC1 [EX 126]
2 | 0.00 | 0.04 | O=C(OCOP(=O)([O-])OC[N+]1(CCCCOc2ccc3ccc(=O)[nH]c3c2)CCN(c2cccc3sccc23)CC1)C1CCOCC1 [EX 127]
3 | 0.00 | 0.09 | CCOC(=O)OCOP(=O)([O-])OC[N+]1(CCCCOc2ccc3ccc(=O)[nH]c3c2)CCN(c2cccc3sccc23)CC1 [EX 129]
4 | 0.00 | -0.02 | CC(C)OC(=O)OCOP(=O)([O-])OC[N+]1(CCCCOc2ccc3ccc(=O)[nH]c3c2)CCN(c2cccc3sccc23)CC1 [EX 130]
5 | 0.00 | 0.13 | CCOCCOC(=O)OCOP(=O)([O-])OC[N+]1(CCCCOc2ccc3ccc(=O)[nH]c3c2)CCN(c2cccc3sccc23)CC1 [EX 132]
6 | 0.00 | 0.07 | CCOCCOCCOC(=O)OCOP(=O)([O-])OC[N+]1(CCCCOc2ccc3ccc(=O)[nH]c3c2)CCN(c2cccc3sccc23)CC1 [EX 134]
7 | 0.00 | 0.09 | CC(C)OCCOCCOCCOC(=O)OCOP(=O)([O-])OC[N+]1(CCCCOc2ccc3ccc(=O)[nH]c3c2)CCN(c2cccc3sccc23)CC1 [EX 137]
8 | 0.00 | 0.07 | CCOC(=O)C1CCN(CCOP(=O)([O-])OC[N+]2(CCCCOc3ccc4ccc(=O)[nH]c4c3)CCN(c3cccc4sccc34)CC2)CC1 [EX 147]
9 | 0.00 | 0.01 | COCCNP(=O)([O-])OC[N+]1(CCCCOc2ccc3ccc(=O)[nH]c3c2)CCN(c2cccc3sccc23)CC1 [EX 152]
10 | 0.00 | 0.16 | CC(C)(C)OC(=O)CNP(=O)([O-])OC[N+]1(CCCCOc2ccc3ccc(=O)[nH]c3c2)CCN(c2cccc3sccc23)CC1 [EX 155]
11 | 0.00 | 0.17 | CCOC(=O)[C@H](C)NP(=O)([O-])OC[N+]1(CCCCOc2ccc3ccc(=O)[nH]c3c2)CCN(c2cccc3sccc23)CC1 [EX 156]
12 | 0.00 | 0.08 | C[C@H](NP(=O)([O-])OC[N+]1(CCCCOc2ccc3ccc(=O)[nH]c3c2)CCN(c2cccc3sccc23)CC1)C(=O)OC(C)(C)C [EX 157]
13 | 0.00 | -0.01 | O=C(OCOP(=O)([O-])OC[N+]1(CCCCOc2ccc3ccc(=O)[nH]c3c2)CCN(c2cccc3sccc23)CC1)N1CCOCC1 [EX 160]

The remaining lines, values behind:

Row | Compound | Concentration of brexpiprazole formed [µM] | Concentration of evaluation compound decreased [µM]
14 | CC(C)(C)OC(=O)NC(C)(C)C(=O)OCOP(=O)([O-])OC[N+]1(CCCCOc2ccc3ccc(=O)[nH]c3c2)CCN(c2cccc3sccc23)CC1 [EX 128] | 0.00 | -0.03
15 | CC(C)OCCOC(=O)OCOP(=O)([O-])OC[N+]1(CCCCOc2ccc3ccc(=O)[nH]c3c2)CCN(c2cccc3sccc23)CC1 [EX 133] | 0.00 | 0.14
16 | CCCCOCCOCCOC(=O)OCOP(=O)([O-])OC[N+]1(CCCCOc2ccc3ccc(=O)[nH]c3c2)CCN(c2cccc3sccc23)CC1 [EX 135] | 0.00 | 0.07
17 | CCOCCOCCOCCOC(=O)OCOP(=O)([O-])OC[N+]1(CCCCOc2ccc3ccc(=O)[nH]c3c2)CCN(c2cccc3sccc23)CC1 [EX 136] | 0.00 | 0.00
18 | CCCCOCCOCCOCCOC(=O)OCOP(=O)([O-])OC[N+]1(CCCCOc2ccc3ccc(=O)[nH]c3c2)CCN(c2cccc3sccc23)CC1 [EX 138] | 0.00 | 0.09
19 | COCCCOC(=O)OCOP(=O)([O-])OC[N+]1(CCCCOc2ccc3ccc(=O)[nH]c3c2)CCN(c2cccc3sccc23)CC1 [EX 139] | 0.00 | 0.12
20 | O=C(OCCCOC1CCCCO1)OCOP(=O)([O-])OC[N+]1(CCCCOc2ccc3ccc(=O)[nH]c3c2)CCN(c2cccc3sccc23)CC1 (centres unmarked) [EX 140] | 0.00 | -0.02
21 | O=C(OCOP(=O)([O-])OC[N+]1(CCCCOc2ccc3ccc(=O)[nH]c3c2)CCN(c2cccc3sccc23)CC1)OC1CCOCC1 [EX 141] | 0.00 | 0.02
22 | O=C(OCOP(=O)([O-])OC[N+]1(CCCCOc2ccc3ccc(=O)[nH]c3c2)CCN(c2cccc3sccc23)CC1)OCC1CCOCC1 [EX 142] | 0.00 | -0.07
23 | CCOC(=O)CCOC(=O)OCOP(=O)([O-])OC[N+]1(CCCCOc2ccc3ccc(=O)[nH]c3c2)CCN(c2cccc3sccc23)CC1 [EX 143] | 0.00 | 0.05
24 | CCOC(=O)CCCCCOC(=O)OCOP(=O)([O-])OC[N+]1(CCCCOc2ccc3ccc(=O)[nH]c3c2)CCN(c2cccc3sccc23)CC1 [EX 144] | 0.00 | 0.12
25 | O=C(O)CCCCCOC(=O)OCOP(=O)([O-])OC[N+]1(CCCCOc2ccc3ccc(=O)[nH]c3c2)CCN(c2cccc3sccc23)CC1 [EX 145] | 0.00 | 0.03
26 | O=C(OCCCN1CCOCC1)OCOP(=O)([O-])OC[N+]1(CCCCOc2ccc3ccc(=O)[nH]c3c2)CCN(c2cccc3sccc23)CC1 [EX 146] | 0.00 | 0.11
27 | CC(C)(C)C(=O)OP(=O)([O-])OC[N+]1(CCCCOc2ccc3ccc(=O)[nH]c3c2)CCN(c2cccc3sccc23)CC1 [EX 150] | 0.00 | 0.11
28 | CCNP(=O)([O-])OC[N+]1(CCCCOc2ccc3ccc(=O)[nH]c3c2)CCN(c2cccc3sccc23)CC1 [EX 151] | 0.00 | -0.01
29 | CCOC(=O)CNP(=O)([O-])OC[N+]1(CCCCOc2ccc3ccc(=O)[nH]c3c2)CCN(c2cccc3sccc23)CC1 [EX 154] | 0.00 | 0.02
30 | C[C@H](NP(=O)([O-])OC[N+]1(CCCCOc2ccc3ccc(=O)[nH]c3c2)CCN(c2cccc3sccc23)CC1)C(N)=O [EX 158] | 0.00 | 0.07
31 | CC(C)OC(=O)[C@H](C)NP(=O)([O-])OC[N+]1(CCCCOc2ccc3ccc(=O)[nH]c3c2)CCN(c2cccc3sccc23)CC1 [EX 159] | 0.00 | 0.06
32 | CCC(=O)OC[N+]1(CCCCOc2ccc3ccc(=O)[nH]c3c2)CCN(c2cccc3sccc23)CC1.[I-] [REX 5, 4-(Benzo[b]thiophen-4-yl)-1-(4-((2-oxo-1,2-dihydroquinolin-7-yl)oxy)butyl)-1-((propionyloxy)methyl)piperazin-1-ium iodide, reference compound] | 0.26 | 0.20
33 | CCCCCC(=O)OC[N+]1(CCCCOc2ccc3ccc(=O)[nH]c3c2)CCN(c2cccc3sccc23)CC1.[I-] [REX 6, 4-(Benzo[b]thiophen-4-yl)-1-((hexanoyloxy)methyl)-1-(4-((2-oxo-1,2-dihydroquinolin-7-yl)oxy)butyl)piperazin-1-ium iodide, reference compound] | 0.21 | 0.22
34 | CCCCCCOC(=O)OC[N+]1(CCCCOc2ccc3ccc(=O)[nH]c3c2)CCN(c2cccc3sccc23)CC1.[I-] [REX 7, 4-(Benzo[b]thiophen-4-yl)-1-((((hexyloxy)carbonyl)oxy)methyl)-1-(4-((2-oxo-1,2-dihydroquinolin-7-yl)oxy)butyl)piperazin-1-ium iodide, reference compound] | 0.24 | 0.27

same assay, conditions: Tris-hydrochloric acid buffer (pH 7.5), 37°C, 60 minutes

Row | Compound | stability in the buffer / conversion to brexpiprazole (in words)
35 | CCC(=O)OC[N+]1(CCCCOc2ccc3ccc(=O)[nH]c3c2)CCN(c2cccc3sccc23)CC1.[I-] [REX 5, 4-(Benzo[b]thiophen-4-yl)-1-(4-((2-oxo-1,2-dihydroquinolin-7-yl)oxy)butyl)-1-((propionyloxy)methyl)piperazin-1-ium iodide, reference compound] | clearly degraded to brexpiprazole
36 | CCCCCC(=O)OC[N+]1(CCCCOc2ccc3ccc(=O)[nH]c3c2)CCN(c2cccc3sccc23)CC1.[I-] [REX 6, 4-(Benzo[b]thiophen-4-yl)-1-((hexanoyloxy)methyl)-1-(4-((2-oxo-1,2-dihydroquinolin-7-yl)oxy)butyl)piperazin-1-ium iodide, reference compound] | clearly degraded to brexpiprazole
37 | CCCCCCOC(=O)OC[N+]1(CCCCOc2ccc3ccc(=O)[nH]c3c2)CCN(c2cccc3sccc23)CC1.[I-] [REX 7, 4-(Benzo[b]thiophen-4-yl)-1-((((hexyloxy)carbonyl)oxy)methyl)-1-(4-((2-oxo-1,2-dihydroquinolin-7-yl)oxy)butyl)piperazin-1-ium iodide, reference compound] | clearly degraded to brexpiprazole
